Source: patent US20230286983A1 (4E Therapeutics, Inc., priority 2020, published 2023)

What was measured:
[1] = tested on: eIF4E phosphorylation at Serine 209 in the human embryonic kidney (HEK) 293 cell line; assay: eIF4E phosphorylation in HEK 293 cells (fluorescent plate reader); assay type: cell-based; conditions: eIF4E phosphorylation at Serine 209, 2 hours exposure; for IC50: Homo sapiens
Procedure: The ability of MNK inhibitors described herein to inhibit eIF4E phosphorylation at Serine 209 in the human embryonic kidney (HEK) 293 cell line was tested by exposing the cells to compound for 2 hours and then measuring eIF4E phosphorylation with a phosphorylation-specific antibody in a fluorescent plate reader. These experiments were done with HEK-293 cells plated on 96 well plates. Following treatment, cells were fixed with ice cold methanol for 10 min and then washed in 1× phosphate buffered saline (PBS) and the permeabilized with 0.02% Triton X-100 in 10% normal goat serum made up in PBS. Primary antibody was applied overnight at a concentration dilution of 1:2000 (p-eIF4E antibody from Cell Signaling ab76256). Following washing, cells were then exposed to secondary antibody conjugated to alexa-fluor 488 and then visualized on a Syngergy HTX plate reader. Fluorescence for p-eIF4E was measured and normalized to total DAPI fluorescence to determine the percentage of eIF4E phosphorylation in each well. Data were plotted in Graphpad Prism V8 to determine concentration-response effects and calculate IC50 values.

[2] = tested on: eIF4E phosphorylation at Serine 209 in Karpas 299; assay: eIF4E phosphorylation in Karpas 299 cells (sandwich ELISA); assay type: cell-based; conditions: Homo sapiens, read-out: Karpas 299 cell IC50
Procedure: The ability of MNK inhibitors described herein to inhibit eIF4E phosphorylation at Serine 209 in Karpas 299, Human Non-Hodgkin's Ki-positive Large Cell Lymphoma cell line was tested by sandwich enzyme linked immune-absorbance assay.

[3] = tested on: eIF4E phosphorylation at Serine 209 in the human osteosarcoma (U2OS) cell line; assay: eIF4E phosphorylation in U2OS cells (fluorescent plate reader); assay type: cell-based; conditions: eIF4E phosphorylation at Serine 209, 2 hours exposure; for IC50: Homo sapiens, U2OS
Procedure: The ability of MNK inhibitors described herein to inhibit eIF4E phosphorylation at Serine 209 in the human osteosarcoma (U2OS) cell line was tested by exposing the cells to compound for 2 hours and then measuring eIF4E phosphorylation with a phosphorylation-specific antibody in a fluorescent plate reader.

P-gp (human MDR1, ABCB1) = assay: MDCK-MDR1 permeability (blood brain barrier permeability); assay type: in vitro ADME, Canine; conditions: dog; for Papp A→B at 5 μM: MDCK-MDR1, Apical to basolateral transport; for Papp A→B at 5 μM / Papp B→A at 5 μM: average of two experiments; for Papp B→A at 5 μM: MDCK-MDR1, Basolateral to apical transport; for efflux ratio at 5 μM: MDCK-MDR1, 5 μM, read-out: Efflux ratio (ratio B-A/A-B)
[4] = molecular target: Cdc2-like kinase 4 (CLK4) (Homo sapiens, UniProt Q9HAZ1); assay: Off-target kinase screen CLK4; assay type: biochemical; conditions: 1 μM test compound
Description: (§1) These kinases were chosen because they are the only known off-target hit kinases for eFT508. These assays were done using recombinant human kinases (CLK4, DRAK1 and PKG2) in a substrate phosphorylation assay. % activity remaining after MNK inhibitor treatment is indicated in Table 12.

[5] = molecular target: T1, death-associated protein kinase-related apoptosis-inducing protein kinase 1 (DRAK1) (Homo sapiens, UniProt Q9UEE5); assay: Off-target kinase screen DRAK1; assay type: biochemical; conditions: 1 μM test compound
T1 sequence (Q9UEE5 1-414): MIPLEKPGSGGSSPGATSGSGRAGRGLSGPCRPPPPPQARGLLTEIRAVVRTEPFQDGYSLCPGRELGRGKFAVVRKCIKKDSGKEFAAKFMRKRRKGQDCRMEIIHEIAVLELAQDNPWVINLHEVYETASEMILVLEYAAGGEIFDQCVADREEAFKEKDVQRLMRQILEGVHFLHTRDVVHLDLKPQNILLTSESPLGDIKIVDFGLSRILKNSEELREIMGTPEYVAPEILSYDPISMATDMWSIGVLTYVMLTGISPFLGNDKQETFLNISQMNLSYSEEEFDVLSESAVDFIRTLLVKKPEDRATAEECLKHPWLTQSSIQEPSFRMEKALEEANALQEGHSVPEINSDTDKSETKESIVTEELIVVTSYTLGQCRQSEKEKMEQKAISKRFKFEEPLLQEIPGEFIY
Description: as §1

[6] = molecular target: T2, protein kinase G 2 (PKG2) (Homo sapiens, UniProt Q13237); assay: Off-target kinase screen PKG2; assay type: biochemical; conditions: 1 μM test compound
T2 sequence (Q13237 1-762): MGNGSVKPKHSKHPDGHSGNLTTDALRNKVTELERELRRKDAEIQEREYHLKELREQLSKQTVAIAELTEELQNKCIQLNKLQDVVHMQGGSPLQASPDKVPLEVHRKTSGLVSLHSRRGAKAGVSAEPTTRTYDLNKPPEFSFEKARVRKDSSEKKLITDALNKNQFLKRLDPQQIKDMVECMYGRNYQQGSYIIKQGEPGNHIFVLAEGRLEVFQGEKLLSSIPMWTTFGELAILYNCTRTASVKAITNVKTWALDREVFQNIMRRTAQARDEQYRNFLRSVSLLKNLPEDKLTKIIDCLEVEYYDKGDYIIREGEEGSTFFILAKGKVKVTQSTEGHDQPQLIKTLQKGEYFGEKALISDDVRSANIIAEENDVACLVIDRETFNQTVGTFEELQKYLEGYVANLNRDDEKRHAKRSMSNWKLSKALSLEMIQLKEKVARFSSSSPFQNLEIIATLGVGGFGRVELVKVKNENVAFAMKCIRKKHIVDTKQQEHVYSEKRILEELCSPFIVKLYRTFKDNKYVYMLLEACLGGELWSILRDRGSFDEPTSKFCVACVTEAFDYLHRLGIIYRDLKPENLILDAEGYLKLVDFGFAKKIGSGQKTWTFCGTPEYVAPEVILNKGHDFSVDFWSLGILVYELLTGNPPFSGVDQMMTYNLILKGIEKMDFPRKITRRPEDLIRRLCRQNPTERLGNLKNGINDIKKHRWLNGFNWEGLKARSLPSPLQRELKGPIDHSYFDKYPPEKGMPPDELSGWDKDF
Description: as §1

MNK2 = MNK2 (Homo sapiens, UniProt Q9HBH9); assay: MNK2 substrate phosphorylation assay; assay type: biochemical; conditions: recombinant human kinase
[7] = Liver microsome stability, rat; assay type: in vitro ADME; conditions: Rat liver microsomes (#); for microsomal CLint: read-out: CLint rodent; for half-life: read-out: Rodent liver microsomes t1/2
[8] = Liver microsome stability, human; assay type: in vitro ADME; conditions: liver microsomes; for half-life: read-out: Human liver microsomes t1/2
MNK1 = MNK1 (Homo sapiens, UniProt Q9BUB5); assay: MNK1 substrate phosphorylation assay; assay type: biochemical; conditions: recombinant human kinase
[9] = Liver microsome stability, mouse; assay type: in vitro ADME; conditions: Mouse liver microsomes (*)

MNK2, sequence (Q9HBH9 whole entry): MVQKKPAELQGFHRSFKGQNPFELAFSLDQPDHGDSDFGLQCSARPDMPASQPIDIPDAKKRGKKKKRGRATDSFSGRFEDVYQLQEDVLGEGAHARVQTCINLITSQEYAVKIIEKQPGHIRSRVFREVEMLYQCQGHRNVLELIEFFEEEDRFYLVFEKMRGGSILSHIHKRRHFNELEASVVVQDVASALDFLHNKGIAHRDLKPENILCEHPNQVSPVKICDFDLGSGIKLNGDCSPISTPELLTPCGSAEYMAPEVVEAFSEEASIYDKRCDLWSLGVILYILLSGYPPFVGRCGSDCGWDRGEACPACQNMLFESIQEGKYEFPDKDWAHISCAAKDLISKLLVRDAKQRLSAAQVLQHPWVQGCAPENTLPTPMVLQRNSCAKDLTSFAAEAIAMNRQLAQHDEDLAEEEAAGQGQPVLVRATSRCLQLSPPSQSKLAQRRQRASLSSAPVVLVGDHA
MNK1, sequence (Q9BUB5 whole entry): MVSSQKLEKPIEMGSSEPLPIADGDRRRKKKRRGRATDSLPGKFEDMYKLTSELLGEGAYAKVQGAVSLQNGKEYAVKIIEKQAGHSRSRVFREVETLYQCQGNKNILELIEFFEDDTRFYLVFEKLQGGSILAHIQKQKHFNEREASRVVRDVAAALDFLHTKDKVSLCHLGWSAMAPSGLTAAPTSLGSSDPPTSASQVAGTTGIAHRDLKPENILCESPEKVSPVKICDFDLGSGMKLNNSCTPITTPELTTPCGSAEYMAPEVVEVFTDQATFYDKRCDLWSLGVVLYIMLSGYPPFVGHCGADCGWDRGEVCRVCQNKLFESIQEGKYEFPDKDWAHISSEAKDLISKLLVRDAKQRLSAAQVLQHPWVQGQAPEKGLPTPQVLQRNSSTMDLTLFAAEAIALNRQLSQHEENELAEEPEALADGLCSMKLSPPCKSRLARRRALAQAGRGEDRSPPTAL
Cdc2-like kinase 4 (CLK4), sequence (Q9HAZ1 whole entry): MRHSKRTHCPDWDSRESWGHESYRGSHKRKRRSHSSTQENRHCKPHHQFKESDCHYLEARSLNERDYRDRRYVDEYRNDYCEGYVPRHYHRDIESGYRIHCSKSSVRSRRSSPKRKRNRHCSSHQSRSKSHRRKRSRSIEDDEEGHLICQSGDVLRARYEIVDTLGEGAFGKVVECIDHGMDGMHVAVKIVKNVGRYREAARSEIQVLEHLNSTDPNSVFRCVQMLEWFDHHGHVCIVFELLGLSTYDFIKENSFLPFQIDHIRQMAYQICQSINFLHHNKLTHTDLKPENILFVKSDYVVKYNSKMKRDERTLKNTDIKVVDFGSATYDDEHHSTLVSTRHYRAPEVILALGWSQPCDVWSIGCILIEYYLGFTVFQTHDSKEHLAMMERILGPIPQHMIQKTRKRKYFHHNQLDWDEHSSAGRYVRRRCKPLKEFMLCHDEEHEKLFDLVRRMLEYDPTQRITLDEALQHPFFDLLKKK

Compound	IC50 ([1]; HEK293) [nM]	IC50 [2] [nM]	IC50 [3] [nM]	Papp A→B at 5 μM (P-gp (human MDR1, ABCB1)) [×10⁻⁶ cm/s]	Papp B→A at 5 μM (P-gp (human MDR1, ABCB1)) [×10⁻⁶ cm/s]	remaining activity at 1 µM [4] [%]	remaining activity at 1 µM [5] [%]	remaining activity at 1 µM [6] [%]	IC50 (MNK2) [nM]	microsomal CLint [7] [µL/min/mg]	half-life [7] [h]	microsomal CLint [8] [µL/min/mg]	half-life [8] [h]	IC50 (MNK1) [nM]	IC50 ([1]; HEK293, 2 h) [nM]	efflux ratio at 5 μM (P-gp (human MDR1, ABCB1))	HEK 293 cell IC50 [1]	U2OS cell IC50 [3]	microsomal CLint ([9]; read-out: CLint rodent) [µL/min/mg]	half-life ([9]; mouse, liver microsomes, Table 11a, read-out: Rodent liver microsomes t1/2) [h]
Cc1cc(Nc2cc(NC(=O)C3CC3)ncn2)c(=O)n2c1C(=O)NC21CCCC1 [Compound 4ET-03-017, N-(6-((8′-Methyl-1′,5′-dioxo-1′,5′-dihydro-2′H-spiro[cyclopentane-1,3′-imidazo[1,5-a]pyridin]-6′-yl)amino)pyrimidin-4-yl)cyclopropanecarboxamide]	0.9	1	0.4	16.3	58.9	17	9	100												
Cc1cc(Nc2cc(N)ncn2)c(=O)n2c1C(=O)NC2(C)C [Compound 4ET-01-003, 6-((6-Aminopyrimidin-4-yl)amino)-3,3,8-trimethyl-2,3-dihydroimidazo[1,5-a]pyridine-1,5-dione]	10.5	35		9.1	13.3	91	65	88	2	2.33	9.93	1.93	12							
Cc1cc(Nc2cc(NC(=O)C3CC3)ncn2)c(=O)n2c1C(=O)NC21CCC(O)CC1 (centres unmarked) [Compound 4ET-03-015, N-(6-((4-Hydroxy-8′-methyl-1′,5′-dioxo-1′,5′-dihydro-2′H-spiro[cyclohexane-1,3′-imidazo[1,5-a]pyridin]-6′-yl)amino)pyrimidin-4-yl)cyclopropanecarboxamide]		3	2.4	0.9	8.7	14	16	100	1.4	3.18	7.27	2.73	8.45	19.1	2.7	10				
Cc1cc(Nc2cc(NC(=O)C(C)C)ncn2)c(=O)n2c1C(=O)NC21CCCC1 [Compound 4ET-03-005, N-(6-((8′-Methyl-1′,5′-dioxo-1′,5′-dihydro-2′H-spiro[cyclopentane-1,3′-imidazo[1,5-a]pyridin]-6′-yl)amino)pyrimidin-4-yl)isobutyramide]		6.4	5.1	15.5	58.6				1.8	4.84	4.78	0.77	29.9	20.5	2.6	3.8				
Cc1cc(Nc2cc(N)ncn2)c(=O)n2c1C(=O)NC21CCC(NS(C)(=O)=O)CC1 (centres unmarked) [Compound 4ET-01-004, N-(6′-((6-Aminopyrimidin-4-yl)amino)-8′-methyl-1′,5′-dioxo-1′,5′-dihydro-2′H-spiro[cyclohexane-1,3′-imidazo[1,5-a]pyridin]-4-yl)methanesulfonamide]				0.1	0.3	93	76	100	8.2	9.57	2.42	2.56	9.02	104	33.6	4.4				
Cc1cc(Nc2cc(NCCO)ncn2)c(=O)n2c1C(=O)NC21CCCCC1 [Compound 4ET-02-001, 6′-((6-((2-Hydroxyethyl)amino)pyrimidin-4-yl)amino)-8′-methyl-2′H-spiro[cyclohexane-1,3′-imidazo[1,5-a]pyridine]-1′,5′-dione]		17				92	81	99	1.6	2.54	9.1	2.51	9.2	39.6	7.1					
Cc1cc(Nc2cc(NCCNS(C)(=O)=O)ncn2)c(=O)n2c1C(=O)NC21CCCC1 [Compound 4ET-03-013, N-(2-((6-((8′-methyl-1′,5′-dioxo-1′,5′-dihydro-2′H-spiro[cyclopentane-1,3′-imidazo[1,5-a]pyridin]-6′-yl)amino)pyrimidin-4-yl)amino)ethyl)methanesulfonamide]				0.2	3.9				8					205		18.1	inactive	inactive		
Cc1cc(Nc2cc(NCCNS(C)(=O)=O)ncn2)c(=O)n2c1C(=O)NC21CCCCC1 [Compound 4ET-02-004, N-(2-((6-((8′-methyl-1′,5′-dioxo-1′,5′-dihydro-2′H-spiro[cyclohexane-1,3′-imidazo[1,5-a]pyridin]-6′-yl)amino)pyrimidin-4-yl)amino)ethyl)methanesulfonamide]			30	0.3	7.6	81	86	100	2.1			1.25	18.5	61.7	30.7	30.2			2.5	9.25
